Results as given in publication PMC3082517 (PLoS Biology, 2011).

What was measured:
[1] = molecular target: T1, p75^NTR with effectors TRAF6, RIP2, RhoGDI (Rattus norvegicus, UniProt P07174); assay: Co-immunoprecipitation of p75NTR with effectors TRAF6, RIP2, RhoGDI in co-transfected HEK293 cells; format: cell-based; conditions: co-transfected HEK293, 30 min; 100 nM DHEA, 100 ng/ml NGF
T1 construct: expressed in transfected cells; host or cells: HEK293
T1 sequence (P07174 30-425): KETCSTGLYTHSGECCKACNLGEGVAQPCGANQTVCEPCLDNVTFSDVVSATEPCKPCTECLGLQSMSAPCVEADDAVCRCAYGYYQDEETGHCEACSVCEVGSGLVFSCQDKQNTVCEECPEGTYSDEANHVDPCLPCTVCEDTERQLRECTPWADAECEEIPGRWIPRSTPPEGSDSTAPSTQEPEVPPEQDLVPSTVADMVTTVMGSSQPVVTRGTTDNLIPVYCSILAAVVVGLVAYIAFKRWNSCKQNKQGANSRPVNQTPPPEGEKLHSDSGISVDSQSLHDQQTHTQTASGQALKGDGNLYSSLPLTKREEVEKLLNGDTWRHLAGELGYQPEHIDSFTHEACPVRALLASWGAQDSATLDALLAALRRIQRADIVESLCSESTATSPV
Experimental: (§1) HEK293 cells were transfected with the appropriate plasmids (TrkA, p75^NTR, RIP2, TRAF-6, and RhoGDI) by using Lipofectamine 2000 (Invitrogen). Cells were harvested 48 h after transfection and suspended in lysis buffer (50 mM Tris-HCl, 0.15 M NaCl, 1% Triton-X100, pH 7.4) supplemented with protease inhibitors. Lysates were precleared for 1 h with Protein A-Sepharose beads (Amersham) and immunoprecipitated with the appropriate antibody (pTyr, Flag, or c-myc) overnight at 4°C. Protein A Sepharose beads were incubated with the lysates for 4 h at 4°C with gentle shaking. […] Beads were collected by centrifugation, washed four times with lysis buffer, and resuspended in SDS loading buffer. Proteins were separated by SDS/PAGE, followed by immunoblotting with specific antibodies.

p75^NTR [2] = molecular target: T2, p75^NTR (Rattus norvegicus, UniProt P07174); assay: [3H]-DHEA saturation binding to membranes of HEK293 cells transfected with p75NTR cDNA; conditions: KD of [3H]-DHEA binding (Scatchard analysis), n = 3
T2 construct: expressed in transfected cells; host or cells: HEK293
T2 sequence (P07174 30-425): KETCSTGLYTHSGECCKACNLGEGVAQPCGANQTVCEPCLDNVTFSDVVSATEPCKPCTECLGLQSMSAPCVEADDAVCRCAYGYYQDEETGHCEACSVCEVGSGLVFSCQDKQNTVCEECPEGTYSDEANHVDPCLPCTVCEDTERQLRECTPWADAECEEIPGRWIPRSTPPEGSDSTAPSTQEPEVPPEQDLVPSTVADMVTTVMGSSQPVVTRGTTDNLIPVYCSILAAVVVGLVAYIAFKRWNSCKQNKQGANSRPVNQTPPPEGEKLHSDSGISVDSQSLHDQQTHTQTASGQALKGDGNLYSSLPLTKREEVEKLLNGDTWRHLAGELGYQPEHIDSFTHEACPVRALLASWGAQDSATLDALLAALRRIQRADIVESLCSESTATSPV

TrkA [3] = molecular target: T3, TrkA (Rattus norvegicus, UniProt P35739); assay: [3H]-DHEA saturation binding to membranes of HEK293 cells transfected with TrkA cDNA; set-up: expressed in transfected cells; host or cells: HEK293; conditions: KD of [3H]-DHEA binding (Scatchard analysis), n = 3
TrkA [4] = molecular target: T3, TrkA; assay: TrkA phosphorylation in HEK293^TrkA transfectants (anti-tyrosine IP, Western blot); format: cell-based; set-up: expressed in transfected cells; host or cells: HEK293; conditions: 10 min (and 20 min), steroids 100 nM, NGF 100 ng/ml
Experimental: as §1
(§2) PC12 or HEK293 cells lysates were electrophoresed through a 12% SDS-polyacrylamide gel, and then proteins were transferred to nitrocellulose membranes, which were processed according to standard Western blotting procedures, as previously described. To detect protein levels, membranes were incubated with the appropriate antibodies: Bcl-2 (dilution 1∶500), phospho TrkA (dilution 1∶500), total TrkA (dilution1∶500), p75^NTR (dilution 1∶500), phospho Shc (dilution 1∶1000), total Shc (dilution 1∶1000), phospho Akt (dilution 1∶500), total Akt (dilution 1∶500), phospho ERK1/2 (dilution 1∶500), and total ERK1/2 (dilution 1∶500). Proteins were visualized using the ECL Western blotting kit (ECL Amersham Biosciences, UK), and blots were exposed to Kodak X-Omat AR films. A PC-based Image Analysis program was used to quantify the intensity of each band (Image Analysis, Inc., Ontario, Canada).
(§3) To normalize for protein content the blots were stripped and stained with GAPDH antibody (dilution 1∶1000); the concentration of each target protein was normalized versus GAPDH. Where phosphorylation of TrkA or kinases was measured, membranes were first probed for the phosphorylated form of the protein, then stripped, and probed for the total protein.

TrkA [5] = assay: TrkA protein levels in serum deprived PC12 cells (immunoblotting); format: cell-based; conditions: serum deprived PC12, 12 to 48 h; 100 nM DHEA, 100 ng/ml NGF; n = 5, p<0.01
Experimental: as §2, §3

[6] = tested on: TrkA positive sensory neurons of dorsal root ganglia; assay: Apoptotic loss of sensory neurons in dorsal root ganglia of NGF null mouse embryos; conditions: ngf−/− embryos at E14, mothers treated daily with DHEA 2 mg
Experimental: ngf+/− mice [13] were obtained from the Jackson Laboratory and maintained on C57BL/6 background. […] Animals were housed in cages maintained under a constant 12 h light–dark cycle at 21–23°C, with free access to food and tap water.
Mice heterozygous for the NGF null mutation were interbred to obtain mice homozygous for the NGF gene disruption and the first day of gestation determined by the discovery of a copulation plug. The mothers were treated daily with a subcutaneous injection of DHEA (2 mg/day) or vehicle (4.5% ethanol in 0.9% saline) starting from the third day after gestation. Animals were collected at E14. At the day of collection the mothers were deeply anesthetized with sodium pentobarbital (Dolethal 0.7 ml/kg i.p.) followed by transcardial perfusion with saline solution containing heparin for about 7 min, and with 4% PFA, 15% Picric Acid, 0.05% GA in phosphate buffer 0.1 M, for another 7 min. After the perfusion the embryos were collected and maintained in the same fixative overnight at 4°C. Embryos were then washed in 0.1 M phosphate buffer and cryoprotected by using 10% sucrose followed by 20% sucrose overnight at 4°C. Finally, embryos were frozen in OCT in iso-pentane over liquid nitrogen for 5 min and the frozen tissues were stored for later use at −80°C. The samples were sectioned (20 µm) and mounted onto Superfrost plus slides (Menzel-Glaser J1800AMNZ). Slides were left to air-dry overnight at room temperature (RT) and were then either used immediately or were fixed in cold acetone for 1 min and stored at −80°C for later use.
Stored or fresh slides were fixed for 15 min in cold acetone at 4°C and left to dry for 10 min at room temperature. They were then washed in PB 0.1 M, then in TBS, and incubated for 45 min with 10% horse serum in TBS-T 0.1%. […] Sections were incubated for 4 h at RT and overnight at 4°C; they were then washed in TBS-T 0.1% and the anti-rabbit secondary antibodies (Alexa Fluor 488 and Alexa Fluor 546, 1∶1000 in TBS-T 0.1%) were added for 6 h at RT. […]

sympathetic SCG neurons = assay: NGF deprivation-induced apoptosis of superior cervical ganglia sympathetic neurons, Annexin V; format: cell-based, rat; conditions: 100 nM DHEA, medium lacking NGF with anti-NGF antiserum
Experimental: Cells were plated on collagen coated 24-well plates and cultured for 5 d prior to use.

TrkA [7] = molecular target: T3, TrkA; assay: Tyr490 TrkA phosphorylation in naive PC12 cells (Western blot); format: cell-based; set-up: PC12 cells, endogenously expressing TrkA receptors; endogenous in cells; host or cells: PC12; conditions: 10 min, DHEA 100 nM, NGF 100 ng/ml
Experimental: as §2, §3

[8] = tested on: Shc, ERK1/2, and Akt kinases; assay: Phosphorylation of Shc, ERK1/2 and Akt kinases in PC12 cells (Western blot); format: cell-based; conditions: serum deprived naive PC12 cells, 10 min; 100 nM DHEA, 100 ng/ml NGF
Experimental: as §2, §3

p75^NTR [9] = assay: p75NTR protein levels in serum deprived PC12 cells (immunoblotting); format: cell-based; conditions: serum deprived PC12, between 24 and 48 h; 100 nM DHEA, 100 ng/ml NGF; n = 5, p<0.01
Experimental: as §2, §3

PC12 cells = assay: Apoptosis of serum deprived PC12 cells, FACS Annexin V-FITC and PI; format: cell-based; conditions: serum free, 100 nM, 24 h, n = 8; serum free control 53.5%±17.6%
Experimental: (§4) PC12 cells were cultured in 12-well plates, and 24 h later they were transfected with the si/shRNAs for TrkA and/or p75^NTR. […] Apoptosis was quantified 24 h later with annexin V-FITC and PI (BD Pharmingen) according to our protocol.

PC12 cell membranes [10] = assay: [3H]-DHEA saturation binding to PC12 cell membranes; conditions: membranes from PC12 cells transfected with siRNA against GAPDH; listed as [^3H]-DHEA; read-out: KD of [3H]-DHEA binding (Scatchard analysis)
nnr5 cells = assay: Apoptosis of nnr5 cells (PC12 clone expressing only p75NTR); format: cell-based; conditions: DHEA 100 nM, NGF 100 ng/ml
Experimental: PC12 cells were obtained from LGC Promochem (LGC Standards GmbH, Germany) and nnr5 cells from Dr. C.F. Ibáñez (Karolinska Institute). Both cell types were grown in RPMI 1640 containing 2 mM L-glutamine, 15 mM HEPES, 100 units/ml penicillin, 0.1 mg/ml streptomycin, and 10% horse serum, 5% fetal calf serum (both charcoal-stripped for removing endogenous steroids) at 5% CO2 and 37°C. HEK-293 cells were obtained from LGC Promochem. Cells were grown in DMEM medium containing 10% fetal bovine serum (charcoal-stripped for removing endogenous steroids), 100 units/ml penicillin, and 0.1 mg/ml streptomycin, at 5% CO2 and […]. HEK-293 and PC12 cells were transfected with Lipofectamine 2000 (InVitrogen) according to manufacturer's instructions. Transfected cells were typically used on the 2nd day after transfection.
as §4

TrkA [11] = molecular target: T3, TrkA; assay: [125I]-NGF displacement, HEK293^TrkA cell membranes; format: binding; set-up: expressed in transfected cells; host or cells: HEK293; conditions: unpublished data
p75^NTR [12] = molecular target: T2, p75^NTR; assay: [125I]-NGF displacement, HEK293^p75NTR cell membranes; format: binding; conditions: unpublished data
p75^NTR receptor = molecular target: p75^NTR receptor; set-up: method as in PMID 16939974; conditions: read-out: KD of NGF binding to p75NTR receptor; cited from earlier work
TrkA receptor = molecular target: TrkA receptor; set-up: method as in PMID 16939974; conditions: read-out: KD of NGF binding to TrkA receptor; cited from earlier work
PC12 cell membranes [13] = assay: [3H]-DHEA displacement, PC12 cell membranes; format: binding; conditions: unpublished data
Experimental: HEK293 cells transfected with an empty vector (HEK293-Vector) or overexpressing p75^NTR (HEK293-p75) or TrkA (HEK293-TrkA), and PC12 cells wild type or shRNA knocked down for p75^NTR and TrkA, were cultured, collected by scraping on ice and washed twice with cold Phosphate Buffer Saline (PBS), pH 7.4. After centrifugation at 1,200 rpm, cells were homogenized in a 50 mM Tris-HCl buffer, pH 7.4 (at 4°C), containing freshly added protease inhibitors (1 mM PMSF and 1 µg/ml aprotinin). Crude membrane fractions were isolated by differential centrifugation at 2,500×g (10 min at 4°C, to remove unbroken cells and nuclei) and 102,000×g (1 h, at 4°C). Membranes were washed once with ice-cold 50 mM Tris–HCl buffer, pH 7.4, and re-suspended in the same buffer. […]
Membranes were incubated for 30 min at 25°C or overnight at 4°C, on a rotating plate; then they were collected on GF/B filters, prewetted in 0.5% PEI solution at 4°C. Filters were washed three times with ice-cold PBS, dried, and counted in scintillation fluid (SigmaFluor, Sigma) in a scintillation counter (Perkin Elmer, Foster City, CA) with 60% efficiency for Tritium. For saturation curves, specific binding (Bound, B) was calculated as the difference of Total Binding − Non Specific Binding. KDs were calculated from B/F over B Scatchard plots. […]

T3 sequence (P35739 33-799): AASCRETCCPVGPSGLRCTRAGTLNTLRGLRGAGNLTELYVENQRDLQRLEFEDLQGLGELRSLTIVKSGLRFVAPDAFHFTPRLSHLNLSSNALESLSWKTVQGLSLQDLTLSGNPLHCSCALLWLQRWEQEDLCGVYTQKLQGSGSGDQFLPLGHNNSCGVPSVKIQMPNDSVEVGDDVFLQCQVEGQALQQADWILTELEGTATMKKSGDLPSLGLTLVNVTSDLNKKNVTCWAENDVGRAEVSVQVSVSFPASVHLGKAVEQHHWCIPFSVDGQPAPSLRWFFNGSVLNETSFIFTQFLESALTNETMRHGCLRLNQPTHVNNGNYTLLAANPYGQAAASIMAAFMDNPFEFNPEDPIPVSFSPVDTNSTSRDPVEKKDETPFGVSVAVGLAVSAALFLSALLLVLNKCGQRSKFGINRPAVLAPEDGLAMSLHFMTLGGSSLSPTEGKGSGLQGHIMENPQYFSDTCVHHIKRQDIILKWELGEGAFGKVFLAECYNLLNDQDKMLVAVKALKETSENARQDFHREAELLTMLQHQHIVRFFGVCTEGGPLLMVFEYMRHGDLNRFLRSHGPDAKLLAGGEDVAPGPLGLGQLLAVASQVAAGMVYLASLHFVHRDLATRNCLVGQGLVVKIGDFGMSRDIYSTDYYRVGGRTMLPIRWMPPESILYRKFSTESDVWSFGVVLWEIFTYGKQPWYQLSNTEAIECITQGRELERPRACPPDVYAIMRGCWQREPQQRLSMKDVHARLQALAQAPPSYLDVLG

C[C@]12CC[C@H](O)CC1=CC[C@@H]1[C@@H]2CC[C@]2(C)C(=O)CC[C@@H]12 [DHEA, dehydroepiandrosterone]
association of p75NTR with effectors TRAF6 and RIP2 [1]: efficiently induced the association
dissociation of RhoGDI from p75NTR receptors [1]: facilitating the dissociation
Kd (p75^NTR [2]; 25°C for 30 min): 5.6 ± 0.55 nM
Kd (p75^NTR [2]; overnight incubation at 4°C): 5.9 ± 1.7 nM
Kd (TrkA [3]; 25°C for 30 min): 7.4 ± 1.75 nM
Kd (TrkA [3]; overnight incubation at 4°C): 7.8 ± 3.1 nM
phosphorylation of TrkA (TrkA [4]): strongly increased
TrkA receptor levels (TrkA [5]): significantly increased
Fluoro Jade C and Caspase 3 positive neurons in the DRG [6]: significantly reduced
TUNEL-positive apoptotic neurons in the DRG [6]: decreased to levels shown in ngf+/− embryos
TrkA positive staining in the DRG [6]: significant increase
effect on apoptotic sympathetic neurons after NGF withdrawal (sympathetic SCG neurons): effectively compensated for NGF by decreasing the levels of apoptotic neurons
phosphorylation of TrkA (Tyr490) (TrkA [7]): strongly induced
phosphorylation of Shc, ERK1/2, and Akt kinases [8]: strongly increased
p75NTR receptor levels (p75^NTR [9]): significantly decreased
increase of apoptosis (% of difference from serum supplemented cells) (PC12 cells): 6%±1.4%
Kd (PC12 cell membranes [10]): 1.07 ± 0.43 nM
effect on apoptosis of nnr5 cells (nnr5 cells): induced apoptosis
displacement of [125I]-NGF binding (in words) (TrkA [11]): unable to effectively displace
displacement of [125I]-NGF binding (in words) (p75^NTR [12]): unable to effectively displace

B1: NGF: neurotrophin nerve growth factor (protein)
chain: SSTHPVFHMGEFSVCDSVSVWVGDKTTATDIKGKEVTVLAEVNINNSVFRQYFFETKCRASNPVESGCRGIDSKHWNSYCTTTHTFVKALTTDEKQAAWRFIRIDTACVCVLSRKATRRG
association of p75NTR with effectors TRAF6 and RIP2 [1]: efficiently induced the association
dissociation of RhoGDI from p75NTR receptors [1]: facilitating the dissociation
phosphorylation of TrkA (TrkA [4]): strongly increased
TrkA receptor levels (TrkA [5]): significantly increased
Kd (p75^NTR receptor): 1 nM
phosphorylation of TrkA (Tyr490) (TrkA [7]): strongly induced
phosphorylation of Shc, ERK1/2, and Akt kinases [8]: strongly increased
Kd (TrkA receptor): 0.01 nM
p75NTR receptor levels (p75^NTR [9]): significantly decreased
IC50 (PC12 cell membranes [13]): 0.92 ± 0.32 nM
effect on apoptosis of nnr5 cells (nnr5 cells): induced apoptosis
